Reference: patent US5939448A, “Triazole derivative or salt thereof” (SS Pharmaceutical Co., Ltd., priority 1996, dated 1999)
Values after ≈ are worked out from the molar mass of the structure shown.

What was measured:
[1] = test system: A. fumigatus IFM 40808; assay: Test 2: In vitro antifungal activity against Aspergillus fumigatus (MIC); type: cell-based; conditions: IFM40808, RPMI 1640 with 0.165M MOPS, pH 7, 35° C., 24 hours
Method: Test 2: In vitro antifungal activity against Aspergillus fumigatus
(§1) They were incubated at 35° C. for 24 hours.

[2] = test system: C. albicans ATCC 44859; assay: Test 1: In vitro antifungal activity against Candida albicans (suppression of mycelial type growth); type: cell-based; conditions: ATCC44859, minimum concentration permitting apparent suppression of mycerial type growth, 10% fetal bovine serum added MEM, 37° C., 20 hours, read-out: Terminal Point C. albicans
Method: Test 1: In vitro antifungal activity against Candida albicans
They were incubated at 37° C. for 20 hours in a CO2 gas incubator. After incubation, morphological change of C. albicans was observed under an inverted microscope.

[3] = test system: A. flavus IFM 41935; assay: Test 3: In vitro antifungal activity against Aspergillus flavus (MIC); type: cell-based; conditions: IFM41935, RPMI 1640 with 0.165M MOPS, pH 7, 35° C., 24 hours
Method: Test 3: In vitro antifungal activity against Aspergillus flavus
as §1

[4] = test system: C. albicans IFM 40009; assay: Test 4: In vivo antifungal activity against Candida albicans (survival of infected mice); set-up: species or system Candida albicans; male ICR (CRJ: CD-1) mouse; conditions: oral 1.25 mg/kg each, four times in total; for Mean survival days: 14 days after infection, vs. control ***: p < 0.001, **: p < 0.01; for Survival mice on 14-th day: survivors/mice of group
Method: Test 4: In vivo antifungal activity against Candida albicans
After 4-week-old, male, ICR (CRJ: CD-1) mouse was fasted for 6 hours, C. albicans IFM 40009 was inoculated to a tail vein of the mouse to give an amount of 3.0×10^6 cells/mouse, whereby infection was caused. A control group consisted of 8 mice, while a chemical-administered group consisted of 5 mice. The chemical was orally administered once an hour after the inoculation of the fungus and 24 hours after the inoculation, and once a day consecutively, four times in total, at 1.25 mg/kg each. The survival during 14 days after the infection was counted. In addition, the mean survival days of the control group and the mean survival days of the chemical-administered group were compared and statistically analyzed by the Kaplan-Meire method (Cox mantel test).

MIC [1] [µg/mL] | MIC [2] [µg/mL] | MIC [3] [µg/mL] | Compound | Mean survival days [4] [days] | Survival mice on 14-th day [4]
4 (≈ 10.9 µM) | 0.0156 (≈ 0.0427 µM) | 8 (≈ 21.9 µM) | COCCSC(F)(F)C(O)(Cn1cncn1)c1ccc(F)cc1F (stereo not drawn) [Example 15, 2-(2,4-difluorophenyl)-1,1-difluoro-1-(2-methoxyethyl)thio-3-(1H-1,2,4-triazol-1-yl)propan-2-ol] |  | 
64 (≈ 182 µM) | 0.25 (≈ 0.712 µM) | 64 (≈ 182 µM) | OCCSC(F)(F)C(O)(Cn1cncn1)c1ccc(F)cc1F (stereo not drawn) [Example 18, 2-(2,4-difluorophenyl)-1,1-difluoro-1-(2-hydroxyethyl)thio-3-(1H-1,2,4-triazol-1-yl)propan-2-ol] |  | 
16 (≈ 40.3 µM) | 0.0625 (≈ 0.157 µM) | 32 (≈ 80.5 µM) | COCCS(=O)(=O)C(F)(F)C(O)(Cn1cncn1)c1ccc(F)cc1F (stereo not drawn) [Example 21, 2-(2,4-difluorophenyl)-1,1-difluoro-1-(2-methoxyethyl)sulfonyl-3-(1H-1,2,4-triazol-1-yl)propan-2-ol] | 14.0 | 4/5

Second part, the compound before the results:

Compound | MIC [1] [µg/mL] | MIC [2] [µg/mL] | MIC [3] [µg/mL] | Mean survival days [4] [days] | Survival mice on 14-th day [4]
CC(=O)OCCSC(F)(F)C(O)(Cn1cncn1)c1ccc(F)cc1F (stereo not drawn) [Example 14, 1-(2-acetoxyethyl)thio-2-(2,4-difluorophenyl)-1,1-difluoro-3-(1H-1,2,4-triazol-1-yl)propan-2-ol] | 8 (≈ 20.3 µM) | 0.0313 (≈ 0.0796 µM) | 4 (≈ 10.2 µM) |  | 
O=S(=O)(CCO)C(F)(F)C(O)(Cn1cncn1)c1ccc(F)cc1F (stereo not drawn) [Example 20, 2-(2,4-difluorophenyl)-1,1-difluoro-1-(2-hydroxyethyl)sulfonyl-3-(1H-1,2,4-triazol-1-yl)propan-2-ol] |  |  |  | 14.0 | 5/5
OC(Cn1cncn1)(Cn1cncn1)c1ccc(F)cc1F [Fluconazole, reference compound] | > 128 | 0.25 (≈ 0.816 µM) | > 128 | 9.6 | 0/5
